Measured values from patent publication US12365667B2, “Sulfone pyridine alkyl amide-substituted heteroaryl compounds” (BRISTOL-MYERS SQUIBB COMPANY, priority 2017, dated 2025).

Each compound was assayed on IFNα-induced STAT phosphorylation (pSTAT5) in human whole blood (assay: IFNα-Induced STAT Phosphorylation in Human Whole Blood). Conditions: 1 h incubation with compound, 1000 U/mL recombinant human IFNα A/D for 15 min, pSTAT5 in CD3 positive population, read-out: IFNα-Induced Stat Phosph. (IC50).
Type: cell-based
Experimental: IFNα-Induced STAT Phosphorylation in Human Whole Blood
After an hour long incubation with compound, human whole blood (drawn with either EDTA or ACD-A as anti-coagulant) was stimulated with 1000 U/mL recombinant human IFNα A/D (R&D Systems 11200-2) for 15 min. The stimulation was stopped by adding Fix/Lyse buffer (BD 558049). Cells were stained with a CD3 FITC antibody (BD 555916), washed, and permeabilized on ice using Perm III buffer (BD 558050). Cells were then stained with an Alexa-Fluor 647 pSTAT5 (pY694) antibody (BD 612599) for 30 min prior to analysis on the FACS Canto II. The amount of pSTAT5 expression was quantitated by median fluorescence intensity after gating on the CD3 positive population.

SMILES	IC50 [nM]
CNC(=O)c1nnc(Nc2cc(C(F)(F)F)c(C(=O)N(C)C3CC3)cn2)cc1Nc1ncccc1S(C)(=O)=O [Example 52]	92
CNC(=O)c1cnc(NC(=O)C2CC2)cc1Nc1nc(C)ccc1S(C)(=O)=O [Example 242]	50
CNC(=O)c1nnc(Nc2ccc(C(F)(F)F)nn2)cc1Nc1ncccc1S(C)(=O)=O [Example 19]	44
CNC(=O)c1nnc(Nc2cc(COC)ncn2)cc1Nc1ncccc1S(C)(=O)=O [Example 101]	95
CNC(=O)c1nnc(Nc2cc(C)nc(C3CC3)n2)cc1Nc1ncccc1S(C)(=O)=O [Example 61]	18
CNC(=O)c1cnc(Nc2ccc(C(F)(F)F)nn2)cc1Nc1ncccc1S(C)(=O)=O [Example 223]	94
CNC(=O)c1nnc(Nc2ccc(OC)cn2)cc1Nc1ncccc1S(C)(=O)=O [Example 2]	26
CNC(=O)c1nnc(Nc2cccc(C3CC3)n2)cc1Nc1ncccc1S(C)(=O)=O [Example 152]	40
CNC(=O)c1cnc(Nc2ccccn2)cc1Nc1ncccc1S(C)(=O)=O [Example 216]	28

Second part, the compound after the results:

IC50 [nM]	SMILES
13	CNC(=O)c1cnc(NC(=O)C2CC2)cc1Nc1ncccc1S(C)(=O)=O [Example 236]
24	CCOC(=O)NC(C)(C)c1ccc(Nc2cc(Nc3ncccc3S(C)(=O)=O)c(C(=O)NC)nn2)nc1 [Example 79]
11	CNC(=O)c1nnc(Nc2ccc(C(C)(C)NC3COC3)cn2)cc1Nc1ncccc1S(C)(=O)=O [compound 170]
13	CNC(=O)c1nnc(Nc2ccc(-n3cccc(C(F)(F)F)c3=O)cn2)cc1Nc1ncccc1S(C)(=O)=O [Example 92]
21	CNC(=O)c1nnc(Nc2ccc(C(C)(C)OC)cn2)cc1Nc1ncccc1S(C)(=O)=O [Example 157]
28	CNC(=O)c1nnc(Nc2ccc(OC)nn2)cc1Nc1ncccc1S(C)(=O)=O [Example 28]
46	CNC(=O)c1nnc(Nc2ccc(N3CCOCC3)cn2)cc1Nc1nc(OC)ccc1S(C)(=O)=O [Example 203]
35	CNC(=O)c1nnc(Nc2cc(Cl)c(C(C)(C)O)cn2)cc1Nc1nc(C)ccc1S(C)(=O)=O [Example 194]
92	CNC(=O)c1nnc(Nc2cc(C(C)(C)O)c(Cl)cn2)cc1Nc1ncccc1S(C)(=O)=O [Example 29]
61	CNC(=O)c1cnc(Nc2cc(C)c(C#N)cn2)cc1Nc1ncccc1S(C)(=O)=O [Example 233]
13	CNC(=O)c1cnc(Nc2cc(C#N)ccn2)cc1Nc1ncccc1S(C)(=O)=O [Example 221]
144	CCC(=O)Nc1cc(Nc2ncccc2S(C)(=O)=O)c(C(=O)NC)cn1 [Example 235]
550	CNC(=O)c1nnc(Nc2ccc(OC)nn2)cc1Nc1nc(F)ccc1S(C)(=O)=O [Example 181]
248	CNC(=O)c1nnc(Nc2ccnc(-c3ccccc3)n2)cc1Nc1ncccc1S(C)(=O)=O [Example 111]
447	CNC(=O)c1nnc(Nc2ccnc(C(F)(F)F)n2)cc1Nc1ncccc1S(C)(=O)=O [Example 138]

Same assay, conditions: Homo sapiens, 1 h incubation with compound, 1000 U/mL recombinant human IFNα A/D for 15 min, pSTAT5 in CD3 positive population, read-out: IFNα-Induced Stat Phosph. (IC50)

IC50 [nM]	SMILES
12	[2H]C([2H])([2H])NC(=O)c1nnc(Nc2ccc(CNC(C)=O)cn2)cc1Nc1ncccc1S(C)(=O)=O [Example 69, 6-((5-(acetamidomethyl)pyridin-2-yl)amino)-N-(methyl-d3)-4-((3-(methylsulfonyl)pyridin-2-yl)amino)pyridazine-3-carboxamide]
229	[2H]C([2H])([2H])NC(=O)c1nnc(Nc2ccc(C(C)(C)O)cc2)cc1Nc1nc(C2CC2)ccc1S(C)(=O)=O [Example 207, 4-((6-cyclopropyl-3-(methylsulfonyl)pyridin-2-yl)amino)-6-((4-(2-hydroxypropan-2-yl)phenyl)amino)-N-(methyl-d3)pyridazine-3-carboxamide]
6	[2H]C([2H])([2H])NC(=O)c1nnc(Nc2ccc(C(C)C)nn2)cc1Nc1ncccc1S(C)(=O)=O [Example 247, 6-((6-isopropylpyridazin-3-yl)amino)-N-(methyl-d3)-4-((3-(methylsulfonyl)pyridin-2-yl)amino)pyridazine-3-carboxamide]
